Results taken from patent US20050020544A1, “Bicyclic CB2 cannabinoid receptor ligands” (priority 2002, published 2005).
Like-named read-outs stand apart in the source and are kept apart here.

Assays:
[1] = system: IL-2 secretion from activated Jurkat cells; assay: Inhibition of IL-2 in PMA/A23187 activated T cells (ELISA); assay type: cell-based, human; settings: for reversal of IL-2 secretion inhibiting activity by antagonists: 0.5-5 μM of CB1 antagonist SR141716A or CB2 antagonist SR144528; for IC50: 24 hours after stimulation, read-out: calculated IC50 IL-2 secretion
Protocol: The technique used to quantify the amount of a given protein in a liquid sample, either tissue culture supernatant or body fluid, is based on Enzyme Linked ImmunoSorbent Assay (ELISA) methodology. Either commercially available or established in house, the assay is based on the capture of the protein of interest by specific antibodies bound to the bottom of an ELISA plate well. […] Again the unbound material is washed away, the samples are then incubated with the appropriate substrate yielding a calorimetric reaction. The reaction is stopped and reading is performed in a spectrophotometer at the appropriate wavelength. Samples are tested at least in duplicate and the appropriate standard curve, consisting of serial dilutions of the recombinant target protein, is incorporated on each plate. Concentration of the protein in the sample is calculated from the standard curve.
Jurkat cells (human acute lymphoma T-cell line; ATCC # TIB-152) are grown in RPMI 1640 medium with 2 mM L-glutamine adjusted to contain 1.5 g/L sodium bicarbonate, 4.5 g/L glucose, 10 mM HEPES, 1.0 mM sodium pyruvate, and 10% heat inactivated fetal bovine serum. Cells are grown in tissue culture flasks and seeded at appropriate density into 24 wells tissue culture plates. 2×10^6 cells in one milliliter are stimulated using 10 ng/ml of PMA (Sigma) and 1 μM A23187 calcium ionophore (Sigma). […] The controls and test compounds are added at indicated concentrations one hour before stimulation. Supernatant is collected 24 hours after stimulation and the levels of the inflammatory agent under study are measured in an ELISA assay as previously described. Inhibition is calculated versus vehicle treated cells.
The activation of the T cells is performed as previously described. The levels of IL-2 are measured in an ELISA assay as previously described. Inhibition is calculated versus vehicle treated cells.

Female Balb/c mice = system: Female Balb/c mice; set-up: maximal reduction in paw edema: dose or concentration left out as unconfirmed; settings: for maximal reduction in paw thickness (MOE) / dose at which the maximal effect was observed: i.p.; for maximal reduction in paw thickness (MOE): 3 hours after carrageenan, at the dose of maximal effect; for dose at which the maximal effect was observed: paw thickness
Protocol: The purpose of this study is to test in vivo the anti-inflammatory activity of the compounds in paw edema induced by injection of 1% carrageenan in the animal hind paw. Female Balb/c mice (20 g average body weight, Harlan, Israel) are anesthetized with a combination of xylazine and pentobarbitone diluted in sterile saline, 15 and 6 mg/kg i.p. respectively. Anesthetized mice are injected subcutaneously, in the subplantar region of one (right) paw with 0.05 ml of 1% w/v Carrageenan in sterile water. […] The test compounds, including known anti-inflammatory controls, are dissolved in CREMOPHOR EL®:ethanol and further diluted 1:20 or 1:50 in sterile saline prior to i.p. injection that takes place immediately before the carrageenan injection. Three hours after injection the animals are resedated following the previously described procedure. Paw thickness is measured using a dial thickness gauge (Spring-dial, constant low pressure gauge, Mitutoyo, TG/L-1, 0.01 mm) and paw volume is measured using a plethysmometer (model #7150, Ugo Basile, Italy). Paw Edema is expressed as the difference between the right treated and the left untreated paws of the same animal, either as Δ Paw Volume (ΔPV) in millimeters cube or as Δ Paw Thickness (ΔPT) in millimeters. Each group comprises at least 10 animals. […] At the end of the study, animals are euthanized with an i.p. injection of 100 mg/kg pentobarbitone.
The differences among various treatment groups are analyzed by analysis of variance (ANOVA) followed by post-hoc Fisher test. A value of p<0.05 is considered to be statistically significant.
For sake of comparison, known anti-inflammatory drugs such as Celecoxib and Dexamethasone yield respectively in the range of relevant doses 7% and 26% reduction in paw thickness at 0.1 mg/kg, 16% and 31% at 0.25 mg/kg and 24% and 33% at 0.5 mg/kg. […] It should be kept in mind that these commercially available drugs display serious side effects that prevent chronic uses without complementary protective medication.

human CB2 receptor = human CB2 receptor (Homo sapiens, UniProt P34972); assay: Adenylylcyclase assay: forskolin-activated cAMP in CB2 transfected HEK-293 cells; assay type: cell-based; settings: for inhibition at 1 µM: HEK293, read-out: % inhibition at 1 μM
Protocol: Cannabinoids and derivatives bind to G-protein-coupled CB1 and CB2 receptors and exert their activity via the inhibition of adenylylcyclase activity. An adenylylcyclase assay forms a basis for the functional analysis of the compounds by determining their capacity to inhibit or promote forskolin-activated cAMP production. The assay is carried out according to Chin et al. (Chin, C. N. et al., J. Neurochem. 70: 366-73, 1998). Briefly, HEK-293 human kidney cells (ATCC#CRL-1573) stably transfected with either the human CB1 or CB2 receptor (cDNA) were grown in DMEM supplemented with 10% fetal calf serum, 1% Penicillin-Streptomycin and 2 mM L-glutamine. Cells were seeded in 24 wells plate at 5×10^4 cells/well and incubated for 48 hours. Medium was then removed and the adherent cells were washed with PBS. Two hundred μl of serum free medium supplemented with 0.2 mM Ro 20-1724, 0.25% BSA, and 20 mM HEPES was then added to each well. The cells were then activated with 1 μM forskolin in presence of the bicyclic test compounds in concentrations ranging from 10 pM up to 1 μM. The activated cells were then incubated at 37° C. for 20 minutes and the reaction terminated with 1.2 M HCl to a final concentration of 0.1 M. Cells were lyzed by freeze and thaw and the lysate was neutralized with 2 M HEPES, pH 7.5. cAMP was measured in 50 μl aliquots using the [^3H]-cAMP assay system (Amersham).
This experiment was first performed on CB2 receptor transfected cells.

[2] = CB2 receptor transfected HEK-293, 1 μM forskolin
[3] = CB2 receptor transfected HEK-293, 1 μM forskolin, read-out: IC50 inhibition of cAMP level

Sequence of human CB2 receptor (P34972 whole entry): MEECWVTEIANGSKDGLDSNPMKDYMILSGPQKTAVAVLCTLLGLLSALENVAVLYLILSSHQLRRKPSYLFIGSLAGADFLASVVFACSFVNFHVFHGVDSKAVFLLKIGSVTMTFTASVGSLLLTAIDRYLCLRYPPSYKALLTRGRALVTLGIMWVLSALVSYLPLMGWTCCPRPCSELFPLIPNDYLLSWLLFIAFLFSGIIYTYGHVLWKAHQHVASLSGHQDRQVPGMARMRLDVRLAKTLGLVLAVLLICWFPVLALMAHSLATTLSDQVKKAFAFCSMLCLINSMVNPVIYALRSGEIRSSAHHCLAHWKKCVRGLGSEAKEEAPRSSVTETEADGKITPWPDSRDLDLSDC

Structure (SMILES)	effect on IL-2 secretion ([1]; doses of up to 10 μM)	maximal reduction in paw thickness (MOE) (Female Balb/c mice)	dose at which the maximal effect was observed (Female Balb/c mice) [mg/kg]	reversal of IL-2 secretion inhibiting activity by antagonists [1]	IC50 ([1]; Homo sapiens, Jurkat) [nM]	IC50 (human CB2 receptor) [nM]	inhibition at 1 µM (human CB2 receptor; [2]) [%]	IC50 [1] [nM]	% inhibition at 1 μM (human CB2 receptor; [2]) [%]	IC50 (human CB2 receptor; [3]) [nM]	maximal reduction in paw edema (Female Balb/c mice; formulated in cosolvent) [%]	therapeutic index (Female Balb/c mice; paw edema, 0.5 mg/kg versus tolerated 40 mg/kg)
CCCCCCC(C)(C)c1cc(OC)c(C2C=C(CO)C3CC2C3(C)C)c(OC)c1 (single isomer, unassigned; (+)) [HU-308, (+) {4-[4-(1,1-dimethylheptyl)-2,6-dimethoxy-phenyl]-6,6-dimethyl-bicyclo[3.1.1]hept-2-en-2-yl}-methanol, reference compound]	minimal effect	about 28%	0.6	–	–	–	–	–	–	–	–	–
CCCCCCC(C)(C)c1cc(O)c(C2CC(=O)C3CC2C3(C)C)c(O)c1 (single isomer, unassigned; (-)) [Compound A, (−)-4-[4-(1,1-Dimethyl-heptyl)2,6-dihydroxy-phenyl]-6,6-dimethyl-bicyclo[3.1.1)heptan-2-one]	–	28%	2.5	not reversed by any of these antagonists	3000	0.24	63	–	–	–	–	–
CCCCC(C)(C)c1cc(O)c(C2CC(=O)C3CC2C3(C)C)c(O)c1 (single isomer, unassigned; (-)) [Compound L, (−)-4-[4(1,1-Dimethyl-pentyl)-2,6-dihydroxy-phenyl]-6,6-dimethyl-bicyclo[3.1.1]heptan-2-one]	–	34%	0.25	not reversed by any of these antagonists	8000	–	33	–	–	–	–	–
CCCCC(C)(C)c1cc(O)c(C2CC(=O)C3CC2C3(C)C)c(OC(=O)CCC(=O)O)c1 (single isomer, unassigned; (-)) [Compound Y, (−)-4-{4-[1,1-Dimethyl-pentyl]-2-succinate-6-hydroxy-phenyl}-6,6-dimethyl-bicyclo[3.1.1]heptan-2-one]	–	–	–	–	–	–	–	9000	60	1.13	–	–
CCCCCCC(C)(C)c1cc(O)c([C@H]2CC(=O)[C@H]3C[C@@H]2C3(C)C)c(OC(=O)CCC(=O)O)c1 [Compound R, (−)-4-{4-[1,1-Dimethyl-heptyl]-2-succinate-6-hydroxy-phenyl}-6,6-dimethyl-bicyclo[3.1.1]heptan-2-one]	–	31%	0.5	–	9000	–	64	–	–	0.47	31	at least 80
